Test results from US4957927A, “(Diarylmethoxy alkyl)-1-pyrrolidines and piperidines having cardiovascular activity” (Lipha, Lyonnaise Industrielle Pharmaceutique, priority 1988, dated 1990).
Counter-ions that a name gives are not always drawn.

Columns and labels:
[1] = system: isolated depolarized artery of the rabbit's ear; assay: decrease in perfusion pressure (calcium-inhibitive effect) on the isolated depolarized artery of the rabbit's ear; settings: Table 1; single dose of 10 μg injected into the perfusion system; hyperpotassic depolarizing solution; average of at least three artery fragments; measured at peak of action
Description: The calcium-inhibitive effect was researched in vitro using the method described by J. M. Van Neuten (Eur. J. Pharmacol., 1969, 6, 286) on the isolated depolarized artery of the rabbit's ear:
A fragment of the central artery of the ear was cannulated and suspended in 100 ml of a Tyrode solution [NaCl: 136.90 mmole/l; KCl: 2.68 mmole/l; CaCl2 : 3.60 mmole/l; MgCl2 : 1.04 mmole/l; NaH2 PO4 : 0.42 mmole/l; glucose: 5.55 mmole/l, NaHCO3 : 11.90 mmole/l ]. The fragment was oxygenated (O2 : 95%; CO2 : 5%) and perfused with a constant 2-ml/minute flow of Tyrode at 37° C. Pressure changes in the perfusion circuit were recorded continuously using a pressure sensor. After an equilibration period, the Tyrode was replaced with a hyperpotassic depolarizing solution [NaCl: 39.33 mmole/l; KCl: 99.83 mmole/l; CaCl2 : 3.60 mmole/l; MgCl2 : 1.04 mmole/l; NaH2 PO4 : 0.42 mmole/l; glucose: 5.55 mmole/l; NaHCO3 : 11.90 mmole/l ], which, because of intracellular calcium penetration, caused significant and durable vasoconstriction, antagonized by a calcium inhibitor. The products according to the invention were tested in a single dose of 10 μg administered by injection into the perfusion system, at a rate of 0.1 ml for 10 seconds. […] The effects of the products according to the invention on vasoconstriction induced by the hyperpotassic solution were monitored for several hours. The intensity was measured at the peak of their action.
Each product was tested on at least three artery fragments. Table I includes the average decreases in perfusion pressure observed for a few products according to the invention.

calmodulin = calmodulin (Bos taurus, UniProt P62157); assay: anti-calmodulin activity (calmodulin activation of Type I cardiac phosphodiesterase); format: biochemical
Description: The principle of the method used is the activating effect calmodulin has on the basic enzyme activity of Type I cardiac phosphodiesterase (H. C. Ho et al., Biochim. Biophys. Acta 1976, 429, 461). Enzyme activity is measured using the W. J. Thomson and H. M. Appleman technique (Biochemistry, 1971, 10, 311).

[2] = acute oral toxicity (lethal dose 50) in rats; settings: rat, in vivo
Source text: Thus, the compound in example 10 has a lethal dose 50 in rats greater than 1 g/kg when administered orally.

Row | Compound | % drop in perfusion pressure ± standard error [1] [%] | IC50 (calmodulin) [µM] | LD50 [2] [mg/kg]
1 | COc1cccc(C2CCN(CCOC(c3ccccc3)c3ccccc3)C2)c1.O=C(O)C(=O)O (stereo not shown) [Example 1, 1-[2-(diphenylmethoxy)ethyl]-3-(3-methoxyphenyl)pyrrolidine oxalate] | 56 ± 6 |  | 
2 | COc1ccc(C2CCN(CCOC(c3ccccc3)c3ccccc3)C2)cc1OC (stereo not shown) [Example 4, 3-(3,4dimethoxyphenyl)-1-[2-diphenylmethoxy)ethyl]pyrrolidine oxalate] | 54 ± 5 |  | 
3 | COc1cccc(C2CCN(CCOC(c3ccc(F)cc3)c3ccc(F)cc3)C2)c1 (stereo not shown) [Example 10, 1-[2-[bis(4-fluorophenyl)methoxy]ethyl]-3-(3-methoxyphenyl)pyrrolidine] | 59 ± 4 | 83 | > 1000
4 | COc1cccc(C2CCCN2CCOC(c2ccccc2)c2ccccc2)c1 (stereo not shown) [Example 11, 1-[2-(diphenylmethoxy)ethyl]-2-(3-methoxyphenyl)pyrrolidine] | 56 ± 5 |  | 
5 | COc1ccccc1C1CCN(CCOC(c2ccccc2)c2ccccc2)C1 (stereo not shown) [Example 13, 1-[2-diphenylmethoxy)ethyl]-3-(2-methoxyphenyl) pyrrolidine maleate] | 58 ± 5 |  | 
6 | CC(C)Oc1cccc(C2CCN(CCOC(c3ccc(F)cc3)c3ccc(F)cc3)C2)c1 (stereo not shown) [Example 14, 1-[2-[bis(4-fluorophenyl)methoxy]ethyl]-3-(3-isopropoxyphenyl)pyrrolidine] | 54 ± 5 |  | 
7 | COc1cc(OC)cc(C2CCN(CCOC(c3ccc(F)cc3)c3ccc(F)cc3)C2)c1 (stereo not shown) [Example 15, 1-[2-[bis(4-fluorophenyl)methoxy]ethyl]-3-(3,5-dimethoxyphenyl)pyrrolidine fumarate] | 52 ± 5 |  | 
8 | Fc1ccc(C(c2ccc(F)cc2)N2CCN(C/C=C/c3ccccc3)CC2)cc1 [flunarizine, reference compound] | 41 ± 4 |  | 
